Our source for the IC50 values is patent US9617271B2, “Triazolo compounds” (Hoffmann-La Roche Inc., priority 2012, dated 2017).

pIC50: −log10 of the molar value.

In the experiment the target is human PDE10A (Homo sapiens (Human), UniProt Q9Y233). Kind of experiment: human PDE10A full length assay ([3H]-cGMP SPA). The experiment is classed as biochemical. As to conditions: human PDE10A full length enzyme, 50 nM cGMP + 50 nM [3H]-cGMP, 20 minutes at room temperature; read-out: PDE10A inhibition IC50. How it is done:
The human PDE10A full length assay was performed in 96-well micro titer plates. The reaction mixture of 50 μl contained 20 mM HEPES pH=7.5/10 mM MgCl2/0.05 mg/ml BSA (Sigma cat. #A-7906), 50 nM cGMP (Sigma, cat. #G6129) and 50 nM [3H]-cGMP (GE Healthcare, cat. #TRK392 S.A. 13.2 Ci/mmol), 3.75 ng/well PDE10A enzyme (Enzo Life Science, Lausen, Switzerland cat #SE-534) with or without a specific test compound. A range of concentrations of the potential inhibitor was used to generate data for calculating the concentration of inhibitor resulting in 50% of the effect (e.g. IC50, the concentration of the competitor inhibiting PDE10A activity by 50%). Non-specific activity was tested without the enzyme. The reaction was initiated by the addition of the substrate solution (cGMP and [3H]-cGMP) and allowed to progress for 20 minutes at room temperature. The reaction was terminated by adding 25 μl of YSi-SPA scintillation beads (GE Healthcare, cat. #RPNQ0150) in 18 mM zinc sulphate solution (stop reagent). After 1 h under shaking, the plate was centrifuged one minute at 170 g to allow beads to settle. Afterwards, radioactive counts were measured on a Perkin Elmer TopCount Scintillation plate reader.

human PDE10A, sequence (Q9Y233 other isoform, or with tags, fused parts or gaps): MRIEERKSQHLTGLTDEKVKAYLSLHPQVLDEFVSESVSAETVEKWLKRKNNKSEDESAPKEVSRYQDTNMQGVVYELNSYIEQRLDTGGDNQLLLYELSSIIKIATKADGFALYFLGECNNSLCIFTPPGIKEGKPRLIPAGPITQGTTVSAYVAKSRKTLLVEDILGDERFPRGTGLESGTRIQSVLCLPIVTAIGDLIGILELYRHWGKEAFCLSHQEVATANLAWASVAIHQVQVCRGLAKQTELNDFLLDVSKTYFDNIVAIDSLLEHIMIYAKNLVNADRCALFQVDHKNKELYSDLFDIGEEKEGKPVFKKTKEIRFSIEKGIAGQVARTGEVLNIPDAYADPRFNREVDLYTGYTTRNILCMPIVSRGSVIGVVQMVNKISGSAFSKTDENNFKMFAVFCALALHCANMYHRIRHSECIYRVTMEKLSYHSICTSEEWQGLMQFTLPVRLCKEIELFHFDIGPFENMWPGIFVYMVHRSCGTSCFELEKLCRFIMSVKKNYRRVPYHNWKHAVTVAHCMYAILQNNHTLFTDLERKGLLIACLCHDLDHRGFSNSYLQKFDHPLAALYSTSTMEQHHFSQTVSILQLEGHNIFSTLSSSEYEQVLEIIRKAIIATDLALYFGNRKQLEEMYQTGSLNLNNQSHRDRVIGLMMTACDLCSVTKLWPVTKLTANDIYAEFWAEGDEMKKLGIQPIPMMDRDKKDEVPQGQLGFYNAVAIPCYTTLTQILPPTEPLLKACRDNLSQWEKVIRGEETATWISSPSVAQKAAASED

As a reminder, the pIC50 is the IC50 on a negative log10 scale, so that one unit is a factor of ten. Consider `Cc1nc2c(S(C)(=O)=O)cc(CCc3nc(N4CCCC4)nn3C)nn2c1C` [Example 33, 2,3-Dimethyl-6-(2-(1-methyl-3-(pyrrolidin-1-yl)-1H-1,2,4-triazol-5-yl)ethyl)-8-(methyl-sulfonyl)imidazo[1,2-b]pyridazine], for which the pIC50 is 7.39.
In the case of `CCN(CC)c1nc(CCc2nc(N3CCCC3)nn2C)nn2c(C)c(C)nc12` [Example 35, N,N-Diethyl-6,7-dimethyl-2-(2-(1-methyl-3-(pyrrolidin-1-yl)-1H-1,2,4-triazol-5-yl)ethyl)imidazo[1,2-f][1,2,4]triazin-4-amine], the pIC50 is 8.85.
Then `Cn1nc(N2CCCC2)nc1C#Cc1ccc2nc(Cl)cn2n1` [Example 36, 2-Chloro-6-((1-methyl-3-(pyrrolidin-1-yl)-1H-1,2,4-triazol-5-yl)ethynyl)imidazo[1,2-b]pyridazine], with 7.25; and `Cn1nc(N2CCCC2)nc1CCc1ccc2nc(Cl)cn2n1` [Example 37, 2-Chloro-6-(2-(1-methyl-3-(pyrrolidin-1-yl)-1H-1,2,4-triazol-5-yl)ethyl)imidazo[1,2-b]pyridazine], with 6.47.
As to `Cc1c(Cl)nc2ccc(C#Cc3nc(N4CCCC4)nn3C)nn12` [Example 38, 2-Chloro-3-methyl-6-((1-methyl-3-(pyrrolidin-1-yl)-1H-1,2,4-triazol-5-yl)ethynyl)-imidazo[1,2-b]pyridazine], the pIC50 is 8.88.
On to `CNC(=O)c1cc2nc(C)c(C)n2nc1C#Cc1nc(N2CCCC2)nn1C` [Example 39, N,2,3-Trimethyl-6-((1-methyl-3-(pyrrolidin-1-yl)-1H-1,2,4-triazol-5-yl)ethynyl)imidazo[1,2-b]pyridazine-7-carboxamide], for which the pIC50 is 5.85.
Turning to `CNC(=O)c1cc(C#Cc2nc(N3CCCC3)nn2C)nn2c(C)c(C)nc12` [Example 40, N,2,3-Trimethyl-6-((1-methyl-3-(pyrrolidin-1-yl)-1H-1,2,4-triazol-5-yl)ethynyl)imidazo-[1,2-b]pyridazine-8-carboxamide], the pIC50 is 9.00.
As for `CNC(=O)c1cc(CCc2nc(N3CCCC3)nn2C)nn2c(C)c(C)nc12` [Example 41, N,2,3-Trimethyl-6-(2-(1-methyl-3-(pyrrolidin-1-yl)-1H-1,2,4-triazol-5-yl)ethyl)imidazo-[1,2-b]pyridazine-8-carboxamide], the figure is 8.70.
Turning to `Cc1nc2cc(C(F)(F)F)c(C#Cc3nc(N4CCCC4)nn3C)nn2c1C` [Example 42, 2,3-Dimethyl-6-((1-methyl-3-(pyrrolidin-1-yl)-1H-1,2,4-triazol-5-yl)ethynyl)-7-(trifluoro-methyl)imidazo[1,2-b]pyridazine], the pIC50 is 7.96.
Regarding `Cc1nc2c(C(C)C)cc(C#Cc3nc(N4CCCC4)nn3C)nn2c1C` [Example 44, 8-Isopropyl-2,3-dimethyl-6-((1-methyl-3-(pyrrolidin-1-yl)-1H-1,2,4-triazol-5-yl)ethynyl)imidazo[1,2-b]pyridazine], the pIC50 is 9.00.
As for `Cc1nc2c(C(C)C)cc(CCc3nc(N4CCCC4)nn3C)nn2c1C` [Example 45, 8-Isopropyl-2,3-dimethyl-6-(2-(1-methyl-3-(pyrrolidin-1-yl)-1H-1,2,4-triazol-5-yl)ethyl)-imidazo[1,2-b]pyridazine], the figure is 8.05.
As for `Cc1nc2c(C3CC3)cc(C#Cc3nc(N4CCCC4)nn3C)nn2c1C` [Example 46, 8-Cyclopropyl-2,3-dimethyl-6-((1-methyl-3-(pyrrolidin-1-yl)-1H-1,2,4-triazol-5-yl)ethynyl)imidazo[1,2-b]pyridazine], the figure is 9.00; as for `Cc1nc2c(C3CCC3)cc(C#Cc3nc(N4CCCC4)nn3C)nn2c1C` [Example 47, 8-Cyclobutyl-2,3-dimethyl-6-((1-methyl-3-(pyrrolidin-1-yl)-1H-1,2,4-triazol-5-yl)ethynyl)imidazo[1,2-b]pyridazine], 9.05.
As for `Cc1nc2c(C3CCC3)cc(CCc3nc(N4CCCC4)nn3C)nn2c1C` [Example 48, 8-Cyclobutyl-2,3-dimethyl-6-(2-(1-methyl-3-(pyrrolidin-1-yl)-1H-1,2,4-triazol-5-yl)ethyl)imidazo[1,2-b]pyridazine], the figure is 8.64.
Turning to `Cc1nc2c(C3CC3)cc(CCc3nc(N4CCCC4)nn3C)nn2c1C` [Example 49, 8-Cyclopropyl-2,3-dimethyl-6-(2-(1-methyl-3-(pyrrolidin-1-yl)-1H-1,2,4-triazol-5-yl)ethyl)imidazo[1,2-b]pyridazine], the pIC50 is 8.54.
As to `Cc1nc2cc(C(C)C)c(C#Cc3nc(N4CCCC4)nn3C)nn2c1C` [Example 50, 7-Isopropyl-2,3-dimethyl-6-((1-methyl-3-(pyrrolidin-1-yl)-1H-1,2,4-triazol-5-yl)ethynyl)imidazo[1,2-b]pyridazine], the pIC50 is 8.59.
As for `Cc1nc2cc(C3CCC3)c(C#Cc3nc(N4CCCC4)nn3C)nn2c1C` [Example 51, 7-Cyclobutyl-2,3-dimethyl-6-((1-methyl-3-(pyrrolidin-1-yl)-1H-1,2,4-triazol-5-yl)ethynyl)imidazo[1,2-b]pyridazine], the figure is 9.22; as for `Cc1nn2ccc(C#Cc3nc(N4CCCC4)nn3C)nc2c1C` [Example 52, 2,3-Dimethyl-5-((1-methyl-3-(pyrrolidin-1-yl)-1H-1,2,4-triazol-5-yl)ethynyl)pyrazolo[1,5-a]pyrimidine], 8.59.
As for `Cc1nn2ccc(CCc3nc(N4CCCC4)nn3C)nc2c1C` [Example 53, 2,3-dimethyl-5-(2-(1-methyl-3-(pyrrolidin-1-yl)-1H-1,2,4-triazol-5-yl)ethyl)pyrazolo[1,5-a]pyrimidine], the figure is 8.68; as for `Cc1cc(C#Cc2nc(N3CCCC3)nn2C)nn2c(C)c(C(F)(F)F)nc12` [Example 54, 3,8-Dimethyl-6-((1-methyl-3-(pyrrolidin-1-yl)-1H-1,2,4-triazol-5-yl)ethynyl)-2-(trifluoro-methyl)imidazo[1,2-b]pyridazine], 8.80; as for `Cc1cc(CCc2nc(N3CCCC3)nn2C)nn2c(C)c(C(F)(F)F)nc12` [Example 55, 3,8-Dimethyl-6-(2-(1-methyl-3-(pyrrolidin-1-yl)-1H-1,2,4-triazol-5-yl)ethyl)-2-(trifluoro-methyl)imidazo[1,2-b]pyridazine], 7.77.
Then `Cc1nnc2ccc(C#Cc3nc(N4CCCC4)nn3C)nn12` [Example 56, 3-Methyl-6-((1-methyl-3-(pyrrolidin-1-yl)-1H-1,2,4-triazol-5-yl)ethynyl)[1,2,4]triazolo-[4,3-b]pyridazine], with 7.42; and `Cc1nnc2ccc(CCc3nc(N4CCCC4)nn3C)nn12` [Example 57, 3-Methyl-6-(2-(1-methyl-3-(pyrrolidin-1-yl)-1H-1,2,4-triazol-5-yl)ethyl)[1,2,4]triazolo[4,3-b]pyridazine], with 6.27; and `Cc1nc2cc(C3CCCCC3)c(CCc3nc(N4CCCC4)nn3C)nn2c1C` [Example 58, 7-Cyclohexyl-2,3-dimethyl-6-(2-(1-methyl-3-(pyrrolidin-1-yl)-1H-1,2,4-triazol-5-yl)ethyl)imidazo[1,2-b]pyridazine], with 7.70.
As to `COc1cc2nc(C)c(C)n2nc1C#Cc1nc(N2CCCC2)nn1C` [Example 60, 7-Methoxy-2,3-dimethyl-6-((1-methyl-3-(pyrrolidin-1-yl)-1H-1,2,4-triazol-5-yl)ethynyl)imidazo[1,2-b]pyridazine], the pIC50 was 8.57.
